In ChEMBL document CHEMBL5715260, “Selectivity Literature for EUbOPEN Chemogenomic Library” (2024):
Blank lines part the entries; values can stand above or below the molecule they belong to. Where a SMILES comes first, the peptide text is derived from it. [ ]: non-standard residue; d: D form. The star is where a group is joined. Benzoyl(4-tBu) = CC(C)(C)c1ccc(C(=O)*)cc1; Lys(Et2) = CCN(CC)CCCC[C@H](N)C(=O)O

Columns and labels:
[1] = target: T1, Hepatocyte nuclear factor 4-alpha (Homo sapiens) (UniProt P41235); test: Selectivity interaction (Reporter gene assay) EUB0002358a HNF4A; parameters: recommended concentration 10 uM
T1 sequence (whole entry): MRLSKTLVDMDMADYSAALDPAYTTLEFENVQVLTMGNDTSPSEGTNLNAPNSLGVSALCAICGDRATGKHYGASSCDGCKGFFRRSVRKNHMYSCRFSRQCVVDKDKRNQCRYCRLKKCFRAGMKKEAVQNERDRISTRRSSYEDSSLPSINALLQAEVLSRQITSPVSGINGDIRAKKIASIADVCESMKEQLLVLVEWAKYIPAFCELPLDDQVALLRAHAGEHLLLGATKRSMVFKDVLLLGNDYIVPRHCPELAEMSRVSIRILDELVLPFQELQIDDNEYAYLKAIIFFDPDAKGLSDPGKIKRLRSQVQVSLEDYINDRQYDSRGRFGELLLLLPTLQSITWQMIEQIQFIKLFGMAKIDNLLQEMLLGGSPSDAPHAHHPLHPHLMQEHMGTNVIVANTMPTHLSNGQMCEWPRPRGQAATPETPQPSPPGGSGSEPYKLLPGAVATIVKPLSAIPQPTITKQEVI

[2] = target: T2, Nuclear receptor subfamily 2 group C member 1 (Homo sapiens) (UniProt P13056); test: Selectivity interaction (Reporter gene assay) EUB0002358a NR2C1; parameters: recommended concentration 10 uM
T2 sequence (whole entry): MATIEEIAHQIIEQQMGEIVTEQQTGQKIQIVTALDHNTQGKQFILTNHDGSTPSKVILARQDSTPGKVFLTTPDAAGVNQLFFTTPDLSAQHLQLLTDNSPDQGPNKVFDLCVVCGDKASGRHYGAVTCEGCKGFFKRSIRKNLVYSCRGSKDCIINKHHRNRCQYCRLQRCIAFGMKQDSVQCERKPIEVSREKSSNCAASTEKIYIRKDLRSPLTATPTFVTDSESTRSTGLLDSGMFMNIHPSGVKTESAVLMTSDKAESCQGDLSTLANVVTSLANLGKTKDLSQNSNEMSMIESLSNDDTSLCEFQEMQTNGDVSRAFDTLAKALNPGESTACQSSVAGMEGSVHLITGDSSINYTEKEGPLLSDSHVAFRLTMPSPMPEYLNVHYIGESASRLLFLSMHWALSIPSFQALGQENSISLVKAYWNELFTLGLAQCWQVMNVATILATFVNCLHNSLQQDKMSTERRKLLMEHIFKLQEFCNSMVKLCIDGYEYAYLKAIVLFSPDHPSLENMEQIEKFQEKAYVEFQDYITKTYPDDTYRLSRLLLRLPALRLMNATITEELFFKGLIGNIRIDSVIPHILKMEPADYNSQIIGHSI

[3] = target: Nuclear receptor subfamily 2 group E member 1 (Homo sapiens) (UniProt Q9Y466); test: Selectivity interaction (Reporter gene assay) EUB0002358a NR2E1; parameters: recommended concentration 10 uM
[4] = target: Nuclear receptor subfamily 4immunitygroup A member 1 (Homo sapiens) (UniProt P22736); test: Selectivity interaction (Reporter gene assay) EUB0002358a NR4A1; parameters: recommended concentration 10 uM
[5] = target: Steroidogenic factor 1 (Homo sapiens) (UniProt Q13285); test: Selectivity interaction (Reporter gene assay) EUB0002358a NR5A1; parameters: recommended concentration 10 uM
[6] = target: Alpha trans-inducing protein (Human alphaherpesvirus 1) (UniProt A0A5J6DW59); test: Selectivity interaction (Reporter gene assay) EUB0002358a UL48; parameters: recommended concentration 10 uM
[7] = target: T3, Retinoic acid receptor RXR-alpha (Homo sapiens) (UniProt P19793); test: Selectivity interaction (Reporter gene assay) EUB0002358a RXRA; parameters: recommended concentration 10 uM; conditions: reference bexarotene 1 uM, Selectivity number of off-targets 0.0, Selectivity number of targets 1.0, Source Knowledge inhouse
T3 sequence (whole entry): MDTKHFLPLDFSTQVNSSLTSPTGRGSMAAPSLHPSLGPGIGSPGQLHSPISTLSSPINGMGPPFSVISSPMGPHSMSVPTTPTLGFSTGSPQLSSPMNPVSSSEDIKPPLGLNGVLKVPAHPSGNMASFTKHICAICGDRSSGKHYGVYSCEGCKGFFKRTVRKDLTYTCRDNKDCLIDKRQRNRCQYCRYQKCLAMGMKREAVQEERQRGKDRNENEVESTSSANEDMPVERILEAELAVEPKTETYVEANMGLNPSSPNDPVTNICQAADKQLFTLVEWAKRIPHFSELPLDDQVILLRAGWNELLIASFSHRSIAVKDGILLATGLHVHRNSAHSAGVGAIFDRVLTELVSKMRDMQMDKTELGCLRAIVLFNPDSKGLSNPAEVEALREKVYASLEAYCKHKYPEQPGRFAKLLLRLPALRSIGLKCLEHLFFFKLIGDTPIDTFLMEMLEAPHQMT

[8] = target: Bromodomain-containing protein 1 (Homo sapiens) (UniProt O95696); conditions: at 1 µM
[9] = target: Bromodomain and PHD finger-containing protein 3 (Homo sapiens) (UniProt Q9ULD4); conditions: at 1 µM
[10] = target: Substance-K receptor (Homo sapiens) (UniProt P21452); test: Selectivity interaction (CEREP panel) EUB0002346a TACR2; parameters: recommended concentration 1 uM; conditions: at 10 µM
[11] = target: T4, Kappa-type opioid receptor (Homo sapiens, UniProt P41145); test: Selectivity interaction (CEREP panel) EUB0002346a OPRK1; parameters: recommended concentration 1 uM; conditions: at 10 µM
[12] = target: T5, Mu-type opioid receptor (Homo sapiens, UniProt P35372); test: Selectivity interaction (CEREP panel) EUB0002346a OPRM1; parameters: recommended concentration 1 uM; conditions: at 10 µM
[13] = target: Vasopressin V1a receptor (Homo sapiens) (UniProt P37288); test: Selectivity interaction (CEREP panel) EUB0002346a AVPR1A; parameters: recommended concentration 1 uM; conditions: at 10 µM
[14] = target: Substance-P receptor (Homo sapiens) (UniProt P25103); test: Selectivity interaction (NIMH PDSP panel) EUB0002346a TACR1; parameters: recommended concentration 1 uM; conditions: at 10 µM
[15] = target: Substance-K receptor (Homo sapiens) (UniProt P21452); test: Selectivity interaction (NIMH PDSP panel) EUB0002346a TACR2; parameters: recommended concentration 1 uM; conditions: at 10 µM
[16] = target: Delta-type opioid receptor (Homo sapiens, UniProt P41143); test: Selectivity interaction (NIMH PDSP panel) EUB0002346a OPRD1; parameters: recommended concentration 1 uM; conditions: at 10 µM
[17] = target: T4, Kappa-type opioid receptor; test: Selectivity interaction (NIMH PDSP panel) EUB0002346a OPRK1; parameters: recommended concentration 1 uM; conditions: at 10 µM
[18] = target: T5, Mu-type opioid receptor; test: Selectivity interaction (NIMH PDSP panel) EUB0002346a OPRM1; parameters: recommended concentration 1 uM; conditions: at 10 µM
[19] = target: Vasopressin V1a receptor (Homo sapiens) (UniProt P37288); test: Selectivity interaction (NIMH PDSP panel) EUB0002346a AVPR1A; parameters: recommended concentration 1 uM; conditions: at 10 µM
[20] = target: Vasopressin V1b receptor (Homo sapiens) (UniProt P47901); test: Selectivity interaction (NIMH PDSP panel) EUB0002346a AVPR1B; parameters: recommended concentration 1 uM; conditions: at 10 µM
[21] = target: Vasopressin V2 receptor (Homo sapiens) (UniProt P30518); test: Selectivity interaction (NIMH PDSP panel) EUB0002346a AVPR2; parameters: recommended concentration 1 uM; conditions: at 10 µM
[22] = target: Bromodomain-containing protein 4 (Homo sapiens, UniProt O60885); test: Selectivity interaction (Proteomics) EUB0000269cCl BRD4; parameters: recommended concentration 1 uM
[23] = target: Lysine-specific histone demethylase 2 (Homo sapiens, UniProt Q8NB78); test: Selectivity interaction (Proteomics) EUB0000269cCl KDM1B/LSD2; parameters: recommended concentration 1 uM
Chain of Lysine-specific histone demethylase 2 (Q8NB78 whole entry): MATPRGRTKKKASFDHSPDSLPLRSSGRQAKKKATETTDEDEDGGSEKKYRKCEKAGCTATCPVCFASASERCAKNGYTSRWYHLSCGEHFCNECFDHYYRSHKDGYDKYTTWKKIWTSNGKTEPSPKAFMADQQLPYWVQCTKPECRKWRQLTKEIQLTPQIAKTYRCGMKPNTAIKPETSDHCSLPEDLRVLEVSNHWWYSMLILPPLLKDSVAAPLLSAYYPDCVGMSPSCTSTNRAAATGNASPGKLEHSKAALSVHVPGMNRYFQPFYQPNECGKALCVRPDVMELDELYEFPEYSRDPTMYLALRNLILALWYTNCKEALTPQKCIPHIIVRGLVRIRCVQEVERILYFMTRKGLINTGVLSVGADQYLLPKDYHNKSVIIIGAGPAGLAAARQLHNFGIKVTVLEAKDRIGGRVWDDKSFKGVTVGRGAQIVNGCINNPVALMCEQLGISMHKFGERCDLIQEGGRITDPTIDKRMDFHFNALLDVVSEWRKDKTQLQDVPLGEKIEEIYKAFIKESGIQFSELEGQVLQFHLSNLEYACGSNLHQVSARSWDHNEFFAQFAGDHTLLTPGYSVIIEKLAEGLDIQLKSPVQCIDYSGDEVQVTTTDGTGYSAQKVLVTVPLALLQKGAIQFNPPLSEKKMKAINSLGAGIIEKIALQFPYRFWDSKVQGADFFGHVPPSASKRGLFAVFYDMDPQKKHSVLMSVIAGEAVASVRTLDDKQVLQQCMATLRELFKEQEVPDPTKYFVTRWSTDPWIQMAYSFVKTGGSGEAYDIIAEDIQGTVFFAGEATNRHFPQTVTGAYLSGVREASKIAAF

T5 sequence (P35372 whole entry): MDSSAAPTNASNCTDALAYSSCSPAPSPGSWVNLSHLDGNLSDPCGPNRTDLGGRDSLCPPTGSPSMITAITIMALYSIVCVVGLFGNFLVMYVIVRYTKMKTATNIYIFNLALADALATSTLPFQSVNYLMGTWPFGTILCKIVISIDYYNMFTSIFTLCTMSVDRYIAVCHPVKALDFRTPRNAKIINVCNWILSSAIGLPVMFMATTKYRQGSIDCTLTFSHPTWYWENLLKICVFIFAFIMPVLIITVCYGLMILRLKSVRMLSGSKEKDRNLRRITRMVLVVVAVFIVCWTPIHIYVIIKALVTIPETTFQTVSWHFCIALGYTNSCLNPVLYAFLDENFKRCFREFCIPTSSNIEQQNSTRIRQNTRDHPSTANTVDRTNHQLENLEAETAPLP
Chain of Substance-K receptor (Homo sapiens) (P21452 whole entry): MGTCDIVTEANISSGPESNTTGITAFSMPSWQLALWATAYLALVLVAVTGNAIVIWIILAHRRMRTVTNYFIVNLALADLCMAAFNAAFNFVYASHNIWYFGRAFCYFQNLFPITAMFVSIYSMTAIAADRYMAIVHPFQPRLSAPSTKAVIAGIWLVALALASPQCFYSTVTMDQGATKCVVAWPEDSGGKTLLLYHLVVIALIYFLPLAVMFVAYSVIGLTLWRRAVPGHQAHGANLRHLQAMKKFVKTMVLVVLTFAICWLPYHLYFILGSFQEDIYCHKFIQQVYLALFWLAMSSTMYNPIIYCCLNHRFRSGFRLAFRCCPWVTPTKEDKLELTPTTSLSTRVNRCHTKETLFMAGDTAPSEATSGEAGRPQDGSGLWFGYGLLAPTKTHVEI
T4 sequence (P41145 whole entry): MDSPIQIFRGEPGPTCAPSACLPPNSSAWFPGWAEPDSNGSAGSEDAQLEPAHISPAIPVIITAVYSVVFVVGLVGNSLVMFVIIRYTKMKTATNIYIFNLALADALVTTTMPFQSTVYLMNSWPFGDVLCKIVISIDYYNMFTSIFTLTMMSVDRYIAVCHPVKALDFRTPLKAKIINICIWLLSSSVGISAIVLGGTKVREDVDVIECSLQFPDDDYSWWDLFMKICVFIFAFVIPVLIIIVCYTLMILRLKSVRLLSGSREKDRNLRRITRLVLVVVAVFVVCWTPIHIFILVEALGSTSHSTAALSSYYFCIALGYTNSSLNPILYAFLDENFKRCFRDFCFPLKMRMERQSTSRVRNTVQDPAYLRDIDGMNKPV
Chain of Vasopressin V1a receptor (Homo sapiens) (P37288 whole entry, looked up): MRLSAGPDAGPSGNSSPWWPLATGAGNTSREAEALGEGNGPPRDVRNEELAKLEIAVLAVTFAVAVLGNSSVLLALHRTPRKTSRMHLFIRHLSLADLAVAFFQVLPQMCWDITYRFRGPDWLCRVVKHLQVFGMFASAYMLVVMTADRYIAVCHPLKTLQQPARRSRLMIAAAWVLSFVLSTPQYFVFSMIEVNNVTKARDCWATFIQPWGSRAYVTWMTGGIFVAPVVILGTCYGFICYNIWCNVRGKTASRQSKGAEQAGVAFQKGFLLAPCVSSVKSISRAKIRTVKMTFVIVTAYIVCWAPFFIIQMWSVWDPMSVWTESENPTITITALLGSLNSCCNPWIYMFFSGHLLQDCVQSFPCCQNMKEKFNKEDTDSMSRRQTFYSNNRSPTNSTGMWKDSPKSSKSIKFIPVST
Chain of Vasopressin V2 receptor (Homo sapiens) (P30518 whole entry): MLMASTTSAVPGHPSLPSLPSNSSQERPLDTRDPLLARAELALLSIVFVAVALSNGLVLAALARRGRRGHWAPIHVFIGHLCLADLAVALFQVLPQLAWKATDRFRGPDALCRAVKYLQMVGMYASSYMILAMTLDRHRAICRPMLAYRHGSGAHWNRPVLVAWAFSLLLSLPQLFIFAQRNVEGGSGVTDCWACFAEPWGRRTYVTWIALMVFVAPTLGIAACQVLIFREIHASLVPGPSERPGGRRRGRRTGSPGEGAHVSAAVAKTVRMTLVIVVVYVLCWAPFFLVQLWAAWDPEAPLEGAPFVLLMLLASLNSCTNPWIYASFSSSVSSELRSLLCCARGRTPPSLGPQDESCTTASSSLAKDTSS
Chain of Vasopressin V1b receptor (Homo sapiens) (P47901 whole entry): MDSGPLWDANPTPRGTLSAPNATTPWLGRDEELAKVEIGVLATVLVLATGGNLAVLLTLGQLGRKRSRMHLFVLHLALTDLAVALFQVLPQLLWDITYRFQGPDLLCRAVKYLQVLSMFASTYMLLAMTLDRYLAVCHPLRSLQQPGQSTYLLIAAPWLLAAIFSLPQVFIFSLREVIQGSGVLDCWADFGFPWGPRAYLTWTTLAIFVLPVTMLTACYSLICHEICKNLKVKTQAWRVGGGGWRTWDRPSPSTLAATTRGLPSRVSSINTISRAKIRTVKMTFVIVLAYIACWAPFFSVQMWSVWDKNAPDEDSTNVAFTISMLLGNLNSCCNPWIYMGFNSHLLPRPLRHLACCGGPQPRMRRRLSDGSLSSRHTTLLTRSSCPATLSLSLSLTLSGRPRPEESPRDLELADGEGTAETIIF
Chain of Alpha trans-inducing protein (Human alphaherpesvirus 1) (A0A5J6DW59 as listed by the source): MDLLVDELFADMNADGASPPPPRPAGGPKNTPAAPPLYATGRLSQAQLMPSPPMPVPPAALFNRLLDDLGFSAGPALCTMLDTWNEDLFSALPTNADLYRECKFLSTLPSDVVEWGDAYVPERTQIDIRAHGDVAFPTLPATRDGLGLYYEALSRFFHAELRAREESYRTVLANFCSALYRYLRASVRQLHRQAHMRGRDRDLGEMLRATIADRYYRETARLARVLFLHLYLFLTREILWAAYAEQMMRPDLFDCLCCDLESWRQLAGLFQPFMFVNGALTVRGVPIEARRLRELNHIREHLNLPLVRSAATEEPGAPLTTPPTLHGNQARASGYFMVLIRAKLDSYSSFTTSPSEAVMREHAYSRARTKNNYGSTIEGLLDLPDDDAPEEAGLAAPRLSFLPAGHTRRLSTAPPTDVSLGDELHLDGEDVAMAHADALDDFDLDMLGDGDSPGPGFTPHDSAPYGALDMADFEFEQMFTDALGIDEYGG
Chain of Delta-type opioid receptor (P41143 whole entry): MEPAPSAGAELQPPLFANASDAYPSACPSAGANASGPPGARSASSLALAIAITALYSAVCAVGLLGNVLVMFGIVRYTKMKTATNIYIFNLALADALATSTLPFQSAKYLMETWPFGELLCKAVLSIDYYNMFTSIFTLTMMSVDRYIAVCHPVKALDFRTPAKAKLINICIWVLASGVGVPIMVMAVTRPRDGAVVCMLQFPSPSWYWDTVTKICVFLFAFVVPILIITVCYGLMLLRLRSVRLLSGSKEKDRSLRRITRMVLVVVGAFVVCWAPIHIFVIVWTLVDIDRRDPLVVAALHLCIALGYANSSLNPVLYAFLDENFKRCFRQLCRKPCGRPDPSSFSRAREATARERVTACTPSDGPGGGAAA
Chain of Steroidogenic factor 1 (Homo sapiens) (Q13285 whole entry): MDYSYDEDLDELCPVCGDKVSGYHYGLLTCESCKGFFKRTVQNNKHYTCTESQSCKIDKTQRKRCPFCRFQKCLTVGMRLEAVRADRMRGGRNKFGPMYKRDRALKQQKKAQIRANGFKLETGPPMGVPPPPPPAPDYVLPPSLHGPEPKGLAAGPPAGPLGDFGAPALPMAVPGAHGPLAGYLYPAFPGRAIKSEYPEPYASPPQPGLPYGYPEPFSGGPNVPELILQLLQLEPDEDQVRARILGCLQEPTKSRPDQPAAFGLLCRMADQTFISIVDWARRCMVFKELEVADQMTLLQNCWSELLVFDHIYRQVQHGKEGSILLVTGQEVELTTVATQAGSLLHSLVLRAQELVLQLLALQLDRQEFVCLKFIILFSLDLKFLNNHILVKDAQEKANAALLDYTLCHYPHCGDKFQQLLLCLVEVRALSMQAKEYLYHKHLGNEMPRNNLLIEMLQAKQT
Chain of Substance-P receptor (Homo sapiens) (P25103 whole entry): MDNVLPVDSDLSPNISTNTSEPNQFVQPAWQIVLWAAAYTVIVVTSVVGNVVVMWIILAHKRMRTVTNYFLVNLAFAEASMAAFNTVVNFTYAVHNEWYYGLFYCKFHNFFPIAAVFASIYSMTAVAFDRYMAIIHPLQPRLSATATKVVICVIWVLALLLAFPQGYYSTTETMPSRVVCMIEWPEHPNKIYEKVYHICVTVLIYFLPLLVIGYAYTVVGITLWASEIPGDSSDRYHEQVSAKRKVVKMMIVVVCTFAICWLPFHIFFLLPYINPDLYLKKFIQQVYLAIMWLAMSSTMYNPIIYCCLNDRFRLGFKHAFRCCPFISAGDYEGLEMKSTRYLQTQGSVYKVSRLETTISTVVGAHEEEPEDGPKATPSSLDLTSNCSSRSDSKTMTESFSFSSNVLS

Fold activation [1]: 0.736
Fold activation [2]: 0.803
Fold activation [3]: 0.661
Fold activation [4]: 1.16
Remaining activity [5]: 1.07
P-value [6]: 6e-08
Relative activation [7]: 0.76%
Structure (SMILES): O=c1[nH]c2ccccc2n1CCCN1CCN(C(c2ccccc2)c2ccccc2)CC1

Control [8]: 0%
Control [9]: 0%
Structure (SMILES): CCCOc1cc(OCCCCN(C)C)cc(Oc2cc3c(cc2NS(=O)(=O)c2ccc(OC)c(OC)c2)n(C)c(=O)n3C)c1

Structure (SMILES): CCN(CC)CCCC[C@H](NC(=O)[C@H](CC(C)C)NC(=O)[C@H](C)NC(=O)[C@H](Cc1ccccc1)NC(=O)c1ccc(C(C)(C)C)cc1)C(=O)N[C@@H](CO)C(=O)OC ({Benzoyl(4-tBu)}-FAL[Lys(Et2)]S-OMe)
Inhibition of control [10]: 75%
Inhibition of control [11]: 91%
Inhibition of control [12]: 51%
Inhibition of control [13]: 85%
Inhibition of control [14]: > 50%
Inhibition of control [15]: > 50%
Inhibition of control [16]: > 50%
Inhibition of control [17]: > 50%
Inhibition of control [18]: > 50%
Inhibition of control [19]: > 50%
Inhibition of control [20]: > 50%
Inhibition of control [21]: > 50%

IC50 [22]: > 1000 µM
IC50 [23]: > 100 µM
Structure (SMILES): Cc1cc(CN)cc(C)c1-c1ncn(C)c1-c1ccnc2cc(F)ccc12
